From patent US20220389515A1, “USE OF BIOMARKERS TO PREDICT CLINICAL SENSITIVITY TO 2-(4-CHLOROPHENYL)-N-((2-(2,6-DIOXOPIPERIDIN-3-YL)-1-OXOISOINDOLIN-5-YL)METHYL)-2,2-DIFLUOROACETAMIDE” (priority 2019, published 2022)
Entries after “also recorded” stand apart in the source; their conditions may differ.

Assays:
GCN2-mediated ISR = test: Immunoblot analysis of integrated stress response and apoptosis markers; format: cell-based, human
Procedure: The U937 GCN2−/− cell line is derived from a single clone of U937 parental cells stably infected with a lentiviral CRISPR vector targeting GCN2. […] Cells were incubated with DMSO or 200 nM Compound D and lysed at the indicated time points. Arrows pointing to bands in the blot on the right designate the cleaved forms of caspase-3. […] The U937 GCN2−/− cell line is derived from a single clone of U937 parental cells stably infected with a lentiviral CRISPR vector targeting GCN2. […] Cells were treated with DMSO or Compound D for 24 hours. On day 3 after Compound D treatment, cell proliferation was assessed by CTG. Result shown in all figure panels is representative of at least three biological replicates. Data in FIGS. 13C, 13D and 13E are shown as mean±SD, n=3 technical replicates.
To determine if the activation of the ISR by Compound D is solely mediated by GCN2, the effect of GCN2 ablation on Compound D response was evaluated.

AML cell lines = test: Cell proliferation assay (CTG) in AML cell lines, 72 hours; format: cell-based, human; settings: 11 AML cell lines, Day 3
Procedure: On Day 3, cell proliferation was assessed by the Cell-Titer Glo (CTG) assay.
For cell proliferation assays, human cancer cell lines cultured in the growth medium recommended by the vendor (as described above) were seeded into black 384-well plates containing DMSO or test compounds. The seeding density of each cell line was optimized to allow for cell growth in the linear growth phase during a 3-day culture period. To test the compounds' effect on cell proliferation in AML cell lines, 5,000 to 10,000 cells per well in 200 L complete culture media were seeded into black 96-well plates containing DMSO or test compounds. After 72 hours, cell proliferation was assessed using the CTG assay according to the manufacturer's instructions. […] Relative cell proliferation was normalized against cell growth values on day 4. The growth inhibitory curve was processed and graphed using GraphPad Prism Version 7 (P<0.05, unpaired two-sided t-test, is considered as significant).

GSPT1 [1] = target: T1, GSPT1 (Homo sapiens, UniProt P15170); test: Immunoblot analysis of Compound D-induced GSPT1 degradation in AML cells; format: cell-based
T1 construct: endogenous in cells; host or cells: KG-1 (TMT proteomics); KG1, U937 / U937-Cas9, MOLM-13, OCI-AML2 (immunoblots)
T1 sequence (P15170 1-637 isoform P15170-3): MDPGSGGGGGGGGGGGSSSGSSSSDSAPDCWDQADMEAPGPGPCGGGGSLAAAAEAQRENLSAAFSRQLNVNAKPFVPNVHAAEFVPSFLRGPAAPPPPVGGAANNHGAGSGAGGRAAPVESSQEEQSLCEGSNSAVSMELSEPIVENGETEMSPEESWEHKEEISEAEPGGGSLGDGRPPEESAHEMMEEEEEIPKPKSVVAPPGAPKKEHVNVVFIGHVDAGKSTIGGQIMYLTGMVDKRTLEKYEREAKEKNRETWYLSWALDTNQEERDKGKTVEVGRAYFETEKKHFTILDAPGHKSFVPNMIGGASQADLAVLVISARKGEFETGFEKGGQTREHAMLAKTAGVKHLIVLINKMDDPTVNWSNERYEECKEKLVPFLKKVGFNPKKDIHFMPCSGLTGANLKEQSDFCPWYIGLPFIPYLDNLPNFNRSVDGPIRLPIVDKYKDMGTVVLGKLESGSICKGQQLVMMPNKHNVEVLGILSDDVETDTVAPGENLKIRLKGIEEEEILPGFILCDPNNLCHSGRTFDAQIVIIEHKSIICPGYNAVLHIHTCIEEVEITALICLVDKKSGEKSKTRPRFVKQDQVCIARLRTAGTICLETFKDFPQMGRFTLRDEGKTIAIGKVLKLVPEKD
T1 sequence (Q96SW2 whole entry partner): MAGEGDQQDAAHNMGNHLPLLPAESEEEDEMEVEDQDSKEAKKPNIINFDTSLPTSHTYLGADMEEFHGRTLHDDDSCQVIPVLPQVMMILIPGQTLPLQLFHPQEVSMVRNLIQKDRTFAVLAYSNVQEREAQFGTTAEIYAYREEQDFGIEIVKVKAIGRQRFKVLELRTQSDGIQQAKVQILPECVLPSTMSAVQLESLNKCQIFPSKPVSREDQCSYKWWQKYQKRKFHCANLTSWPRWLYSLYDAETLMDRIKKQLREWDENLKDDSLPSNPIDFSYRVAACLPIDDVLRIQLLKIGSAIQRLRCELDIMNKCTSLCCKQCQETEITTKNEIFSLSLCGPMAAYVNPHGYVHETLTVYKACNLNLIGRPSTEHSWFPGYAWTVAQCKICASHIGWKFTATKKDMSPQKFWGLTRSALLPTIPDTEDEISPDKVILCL
T1 sequence (Q16531 2-1140 partner): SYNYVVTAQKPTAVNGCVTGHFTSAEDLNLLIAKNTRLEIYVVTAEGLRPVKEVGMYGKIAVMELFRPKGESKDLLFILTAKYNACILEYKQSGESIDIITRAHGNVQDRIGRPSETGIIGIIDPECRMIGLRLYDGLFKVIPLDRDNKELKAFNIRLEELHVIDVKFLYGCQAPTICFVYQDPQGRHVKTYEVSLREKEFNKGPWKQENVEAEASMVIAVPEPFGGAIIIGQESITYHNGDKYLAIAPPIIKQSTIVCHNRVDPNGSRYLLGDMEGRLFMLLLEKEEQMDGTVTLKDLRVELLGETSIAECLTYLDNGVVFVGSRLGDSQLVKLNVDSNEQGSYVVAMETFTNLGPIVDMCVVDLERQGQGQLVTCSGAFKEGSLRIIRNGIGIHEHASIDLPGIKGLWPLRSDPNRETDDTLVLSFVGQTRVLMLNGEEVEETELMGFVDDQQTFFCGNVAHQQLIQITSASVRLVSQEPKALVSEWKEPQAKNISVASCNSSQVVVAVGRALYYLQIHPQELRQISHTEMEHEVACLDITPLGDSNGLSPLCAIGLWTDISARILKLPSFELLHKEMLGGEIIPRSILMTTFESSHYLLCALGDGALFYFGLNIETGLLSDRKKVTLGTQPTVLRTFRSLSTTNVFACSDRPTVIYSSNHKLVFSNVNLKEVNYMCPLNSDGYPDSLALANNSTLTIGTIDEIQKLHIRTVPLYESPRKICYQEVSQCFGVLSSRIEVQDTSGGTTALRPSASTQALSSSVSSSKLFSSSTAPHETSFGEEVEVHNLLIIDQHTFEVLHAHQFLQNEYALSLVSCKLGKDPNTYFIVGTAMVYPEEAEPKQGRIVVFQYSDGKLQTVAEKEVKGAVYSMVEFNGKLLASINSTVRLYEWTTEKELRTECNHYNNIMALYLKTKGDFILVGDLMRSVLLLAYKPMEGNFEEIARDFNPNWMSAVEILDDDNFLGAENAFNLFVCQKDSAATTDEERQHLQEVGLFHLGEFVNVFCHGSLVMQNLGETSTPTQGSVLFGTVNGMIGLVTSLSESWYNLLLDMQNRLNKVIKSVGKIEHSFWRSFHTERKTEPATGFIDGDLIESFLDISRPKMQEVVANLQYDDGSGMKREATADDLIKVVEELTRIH
Procedure: (§1) FIG. 2A illustrates the volcano plot of differentially abundant proteins in response to Compound D treatment relative to the DMSO control. KG1 cells were treated with DMSO or 100 nM Compound D for 4 hours and subjected to TMT proteomics analysis. The X-axis denotes the log 2-fold change of Compound D versus the DMSO control for each protein. P-values were corrected for multiple hypothesis testing using the Benjamini-Hoschberg method to arrive at an adjusted-P-value (adj-P, also known as a false discovery rate). The y-axis denotes the −log 10 (adj-P) values indicating statistical significance such that proteins lying above the dotted red line are statistically significant findings with adjusted P-values<0.05. FIG. 2B illustrates the immunoblot analysis of KG1 and U937 cells treated with DMSO or Compound D for 4 hours. Where indicated, cells were pretreated with Bortezomib or MLN4924 for 30 minutes. FIGS. 2C and 2D illustrate the immunoblot analysis (FIG. 2C) and cell proliferation (FIG. 2D) of U937-Cas9 parental cells or cells stably transduced with lentiviral vectors expressing a non-targeting sgRNA (sgNT-1), a sgRNA targeting a non-coding region (sgNC-8), or a sgRNA targeting CRBN(sgCRBN-8). Cells were treated with DMSO or Compound D at indicated concentrations. FIGS. 2E and 2F illustrate the immunoblot analysis (left panel) and cell proliferation (right panel) of MOLM-13 (FIG. 2E) and OCI-AML2 (FIG. 2F) parental and CRBN−/− cells. Cells were treated with DMSO or Compound D at indicated concentrations. Results shown in all figure panels are representative of three biological replicates. Data in FIGS. 2D, 2E (right panel), and 2F (right panel) are shown as mean±SD, n=3 technical replicates.
(§2) FIG. 3A illustrates FLAG-HA tagged cereblon wild-type (FLAG-HA-CRBN) or Y384A/W386A mutant (FLAG-HA-YWAA) produced in 293FT CRBN−/− cells was used to capture V5 tagged GSPT1 (GSPT1-V5) and V5 tagged IKZF1 (IKZF1-V5) transiently expressed in 293FT CRBN−/− cells. […] FIG. 3B illustrates the surface representation of GSPT1 in complex with cereblon, DDB1 and Compound D, with DDB1 shown in purple, cereblon in blue, and GSPT1 in orange. The position of Compound D is shown with a white arrow. FIG. 3C illustrates the Fo-Fc omit electron density (green mesh) for Compound D (yellow sticks) contoured at 3.06. FIG. 3D illustrates GSPT1's interaction with cereblon is mediated by a β-hairpin loop. Hydrogen bond interactions between cereblon and the GPST1 β-hairpin are shown as yellow dashes. FIG. 3E illustrates details of the binding interface between cereblon and GSPT1. Compound D is represented as yellow sticks. Predicted polar interactions between Compound D and cereblon are shown as yellow dashes. FIG. 3F illustrates the immunoblot analysis of U937 parental cells or cells stably expressing HA-GSPT1-G575N. Cells were treated with DMSO or Compound D at the indicated concentrations. FIGS. 3G and 311 illustrate the immunoblot analysis (left panel) and cell proliferation (right panel) of MOLM-13 (FIG. 3G) and OCI-AML2 (FIG. 311) parental cells and cells stably expressing HA tagged GSPT1-G575N. Cells were treated with DMSO or Compound D at indicated concentrations.
(§3) Like all other cereblon modulators, Compound D contains a glutarimide ring (FIG. 1A) that can bind cereblon and redirect it to target neosubstrates for degradation. Thus, the effect of Compound D on the global proteome in AML cell line KG-1 was assessed using tandem mass tag (TMT) quantitative mass spectrometry.
(§4) Specifically, U937 cells stably expressing Cas9 were infected with lentiviral vectors constitutively expressing RFP and non-targeting or non-coding sgRNA (sgNT) controls, or sgRNAs targeting TSC1 or TSC2. Infected cells were selected with 1 μg/ml puromycin. […]

GSPT1 [2] = target: T2, GSPT1 (Homo sapiens, UniProt P15170, G437N); test: as above; format: cell-based; settings: U937, MOLM-13, OCI-AML2 stably expressing HA-GSPT1-G575N
T2 construct: endogenous in cells; host or cells: KG-1 (TMT proteomics); KG1, U937 / U937-Cas9, MOLM-13, OCI-AML2 (immunoblots)
T2 sequence (P15170 1-637 isoform P15170-3 G575N): as the sequence (P15170 1-637 isoform P15170-3) above, with G575N counted along it
T2 sequence (Q96SW2 whole entry partner): as the sequence (Q96SW2 whole entry partner) above
T2 sequence (Q16531 2-1140 partner): as the sequence (Q16531 2-1140 partner) above
Procedure: as §1, §2, §3, §4

[3] = test system: U937 Cas9 cell lines and OCI-AML2 Cas9 cell lines; test: Cell proliferation assay (CTG, 5 days) in sgRNA knockout Cas9 lines; format: cell-based, human
Procedure: Then, a cell proliferation assay was performed. Compound D dissolved in DMSO was injected into 96-well cell culture plates using a HP D300 digital dispenser in triplicate Compound D concentrations. One week after infection to knock-out the indicated genes, each of U937 Cas9 cell lines and OCI-AML2 Cas9 cell lines were plated in triplicate with 5000 cells in 100 μL complete culture media per well in the 96-well plates. After 5 days, cell proliferation was assessed using CTG (CellTiter-Glo) according to the manufacturer's instructions to assess the effects of Compound D on proliferation of each cell line.

Compound: O=C1CCC(N2Cc3cc(CNC(=O)C(F)(F)c4ccc(Cl)cc4)ccc3C2=O)C(=O)N1 (stereo not drawn) [Compound D, 2-(4-chlorophenyl)-N-((2-(2,6-dioxopiperidin-3-yl)-1-oxoisoindolin-5-yl)methyl)-2,2-difluoroacetamide]
- activation of the ISR (eIF2a phosphorylation, ATF4 and targets) (GCN2-mediated ISR; U937 24 hours, KG-1 200 nM): triggered the rapid phosphorylation of eIF2a, accumulation of ATF4 and its transcriptional targets DDIT4, CHOP and ATF3
- apoptosis (cleaved caspase-3) (GCN2-mediated ISR; U937, KG-1 200 nM): subsequent induction of apoptosis
- ISR activation and caspase-3 cleavage after GCN2 knockout (GCN2-mediated ISR; U937 GCN2-/-, 24 hours): inhibited the phosphorylation of eIF2a, induction of ATF4 and its target gene DDIT4, and the cleavage of caspase-3
- anti-proliferative activity (AML cell lines): potent anti-proliferative activity in 10 out of 11 AML cell lines
- downregulation of GSPT1 by Compound D under bortezomib, MLN4924 or knockout of CRBN (GSPT1 [1]; KG1, U937, MOLM-13, OCI-AML2, pretreatment 30 minutes): completely blocked
- Compound D induced GSPT1 degradation after ILF2 or ILF3 knockout (GSPT1 [1]; U937, OCI-AML2): drastically reduced cereblon protein levels, and hence Compound D-induced GSPT1 degradation; also recorded: attenuated Compound D induced GSPT1 degradation
- GSPT1 expression, cotreatment with cycloheximide (GSPT1 [1]; U937-Cas9 parental): downregulated GSPT1 expression
- GSPT1 expression, cotreatment with cycloheximide, TSC1 or TSC2 loss (GSPT1 [1]; U937 TSC1-/- and TSC2-/-): largely abrogated this effect
- Compound D induced GSPT1 degradation after TSC1 or TSC2 knockout (GSPT1 [1]; U937 and OCI-AML2): partially blocked GSPT1 degradation induced by Compound D; also recorded: Attenuated Compound D induced GSPT1 degradation
- Compound D-induced degradation of GSPT1-G575N (GSPT1 [2]): conferred complete resistance to Compound D-induced degradation
- anti-proliferative effects after depletion of TSC1 and TSC2 ([3]; U937): diminished this effect
- anti-proliferative effects in control cells ([3]; parental, sgNT-1 and sgNC-8 controls): dose-dependent anti-proliferative effects
